Here are results for seven compounds from US20240307310A1, “STABILIZED SOLID ORAL PHARMACEUTICAL COMPOSITION OF VARENICLINE” (LUPIN LIMITED, priority 2021, published 2024).

The conditions of data set [1]: cited from earlier work; for AI Limit: FDA recommended acceptable intake limit in drug products.
Data set [2] can be described thus: Analysis of nitrosamine impurities (VC09, NDEA) in drug substance, blends and tablets. The format is physicochemical. Conditions: Table 2.
The nature of data set [3]: Regulatory acceptable intake (AI) limits for nitrosamine impurities. The arrangement: species or system human. Conditions: determined in view of the EMA limit. As for the experimental part:
FDA recommends the following acceptable intake (Al) limits fir the nitrosamine impurities a s given in the below table:
The conversion of Al limit into ppm varies by product and is calculated based on a drug's maximum daily dose (MDD) as reflected in the drug label (ppm=Al (ng)/MDD(mg)).
These limits are applicable only if a drug product contains a single nitrosamine.
Apart from NDMA there is another nitrosamine impurity, N-nitroso-varenicline which is usually found in APIs as well as finished product of varenicline. As per the recent update, USFDA has provided acceptable intake limit of N-nitroso-varenicline (VC09) from 37 ng/day to 185 ng/day, in finished product of varenicline.
Additionally, European Medicines Agency (EMA) has also provided the daily acceptable intake limit for N-nitroso-varenicline impurity as 18 ng/day. In view of the above limit minimum daily intake limit for VC09 was determined as 9 ppm.

Regarding `CCN(CC)N=O` [NDEA, N-nitrosodiethylamine], the “AI Limit” value in data set [1] is listed as 26.5 ng/day.
Consider `CN(C)N=O` [NDMA, N-nitrosodimethylamine], for which the “AI Limit” value in data set [1] is recorded as 96 ng/day.
Regarding `CN(CCCC(=O)O)N=O` [NMBA, N-nitroso-N-methyl-4-aminobutanoic acid], in data set [1], the “AI Limit” value is recorded as 96 ng/day.
Turning to Varenicline Tartrate [Drug Substance], the “Nitrosamines Results in ppm, VC09” value in data set [2] (40/75, 7 days, open) amounted to 0.20 ppm; in data set [2] (60° C, 7 days, open) it was 0.27 ppm; in data set [2] (Initial (Chantix tablets: condition not given)), 0.23 ppm.
For the compound `O=NN1CC2CC(C1)c1cc3nccnc3cc12` [N-nitroso-varenicline], the “minimum daily intake limit” value in data set [3] was found to be 9 ppm. In addition, the “daily acceptable intake limit” value in data set [1] (European Medicines Agency (EMA)) is reported as 18 ng/day.
As to `CC(C)N(N=O)C(C)C` [NDIPA, N-nitrosodiisopropylamine], the “AI Limit” value in data set [1] was 26.5 ng/day.
On to `CCN(N=O)C(C)C` [NIPEA, N-nitrosoisopropylethyl amine], for which the “AI Limit” value in data set [1] is 26.5 ng/day.
